Assays:
blackgrass = assay: Test B pre/postemergence blackgrass; format: in vivo, Alopecurus myosuroides
How it was run: (§1)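 Response is a visual 0-to-10 score relative to untreated plants, where 0 means no effect and 10 means complete control, taken twelve to sixteen days after application. Treatments went onto soil at planting and onto foliage of 1- to 4-leaf plants, using a surfactant-containing non-phytotoxic solvent.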

smallflower flatsedge = assay: Test B flood test smallflower flatsedge; format: in vivo, Cyperus difformis
How it was run: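 Each value is a visual injury score relative to controls, with 10 meaning complete control and 0 no effect. Evaluation took place twelve to sixteen days after the 2-leaf-stage plants were treated and kept in the greenhouse.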

surinam grass = assay: Test B pre/postemergence surinam grass; format: in vivo, Brachiaria decumbens
How it was run: as §1

bedstraw = assay: Test B pre/postemergence bedstraw; format: in vivo, Galium aparine
How it was run: as §1

[1] = Postemergence, Rate 250 g/ha, scale 0 to 10, 0 no effect, 10 complete control
[2] = Preemergence, Rate 62 g/ha, scale 0 to 10 (0 no effect, 10 complete control)
[3] = Preemergence, Rate 125 g/ha, scale 0 to 10 (0 no effect, 10 complete control)
[4] = Preemergence, Rate 250 g/ha, scale of 0 to 10 where 0 is no effect and 10 is complete control
[5] = Preemergence, Rate 500 g/ha, scale 0 to 10 (0 no effect, 10 complete control)
[6] = Rate 500 g/ha, Postemergence, scale 0 to 10, 0 no effect, 10 complete control
[7] = Rate 500 g/ha, listed under Postemergence (flood test species), scale 0 to 10, 0 no effect, 10 complete control
[8] = Postemergence, Rate 62 g/ha, scale 0 to 10, 0 is no effect, 10 is complete control
[9] = Rate 125 g/ha, Postemergence, scale 0 to 10, 0 no effect, 10 complete control
[10] = Rate 500 g/ha, Postemergence, scale of 0 to 10 where 0 is no effect and 10 is complete control
[11] = Preemergence, Rate 62 g/ha, scale 0 to 10, 0 is no effect, 10 is complete control
[12] = Preemergence, Rate 500 g/ha, scale 0 (no effect) to 10 (complete control)
[13] = Rate 500 g/ha, Postemergence, 0 to 10 scale (0 no effect, 10 complete control)
[14] = Rate 125 g/ha, Postemergence section (flood test species), scale 0 to 10, 0 no effect, 10 complete control
[15] = flood test, listed under Postemergence, Rate 250 g/ha, scale 0 to 10, 0 no effect, 10 complete control

Cc1nn(C)c(C)c1-n1c(=O)on(C(=O)N(c2ccccc2)C(C)C)c1=O [Compound 120]
2: Bedstraw plant response rating (bedstraw; [6])
7: Plant response rating, Blackgrass (blackgrass; [4]) | B. signalgrass plant response rating (surinam grass; [1])
6: Blackgrass plant response rating (blackgrass; [1]) | Plant response rating, B. signalgrass (surinam grass; [4])
8: Blackgrass plant response rating (blackgrass; [5]) | Blackgrass plant response rating (blackgrass; [6]) | B. signalgrass plant response rating (surinam grass; [5]) | B. signalgrass plant response rating (surinam grass; [10])
4: Blackgrass plant response rating (blackgrass; Postemergence, Rate 125 g/ha, scale of 0 to 10 where 0 is no effect and 10 is complete control) | B. signalgrass plant response rating (surinam grass; [9])
3: Plant response rating, Blackgrass (blackgrass; [3]) | Plant response rating, B. signalgrass (surinam grass; [3])
0: Blackgrass plant response rating (blackgrass; [2]) | Blackgrass plant response rating (blackgrass; Rate 62 g/ha, Postemergence, scale of 0 to 10 where 0 is no effect and 10 is complete control) | S. Flatsedge plant response rating (smallflower flatsedge; Postemergence (flood test species), Rate 125 g/ha, scale of 0 to 10 where 0 is no effect and 10 is complete control) | S. Flatsedge plant response rating (smallflower flatsedge; Rate 62 g/ha, Postemergence section, flood test species, scale of 0 to 10 where 0 is no effect and 10 is complete control) | Plant response rating, S. Flatsedge (smallflower flatsedge; Rate 250 g/ha, Postemergence (flood test), scale 0 to 10, 0 is no effect, 10 is complete control) | S. Flatsedge plant response rating (smallflower flatsedge; [7]) | B. signalgrass plant response rating (surinam grass; [8]) | B. signalgrass plant response rating (surinam grass; [2]) | Bedstraw plant response rating (bedstraw; [2]) | Plant response rating, Bedstraw (bedstraw; [3]) | Plant response rating, Bedstraw (bedstraw; [4]) | Bedstraw plant response rating (bedstraw; [5])

CC(C)Oc1cc(-n2c(=O)on(C(=O)N(c3ccc(F)cc3)C(C)C)c2=O)c(Cl)cc1Cl [Compound 43]
0: Blackgrass plant response rating (blackgrass; [8]) | Blackgrass plant response rating (blackgrass; [1]) | Plant response rating, Blackgrass (blackgrass; [11]) | Plant response rating, Blackgrass (blackgrass; [3]) | Plant response rating, Blackgrass (blackgrass; [4]) | Blackgrass plant response rating (blackgrass; [9]) | S. Flatsedge plant response rating (smallflower flatsedge; [8]) | S. Flatsedge plant response rating (smallflower flatsedge; [14]) | S. Flatsedge plant response rating (smallflower flatsedge; [15]) | B. signalgrass plant response rating (surinam grass; [8]) | B. signalgrass plant response rating (surinam grass; [1]) | Plant response rating, B. signalgrass (surinam grass; [11]) | Plant response rating, B. signalgrass (surinam grass; [3]) | Plant response rating, B. signalgrass (surinam grass; [4]) | B. signalgrass plant response rating (surinam grass; [12]) | B. signalgrass plant response rating (surinam grass; [9]) | B. signalgrass plant response rating (surinam grass; [13]) | Bedstraw plant response rating (bedstraw; [8]) | Bedstraw plant response rating (bedstraw; [1]) | Plant response rating, Bedstraw (bedstraw; [11]) | Plant response rating, Bedstraw (bedstraw; [3]) | Plant response rating, Bedstraw (bedstraw; [4]) | Bedstraw plant response rating (bedstraw; [9])
1: Blackgrass plant response rating (blackgrass; [12])
4: Blackgrass plant response rating (blackgrass; [13])
2: Bedstraw plant response rating (bedstraw; [12]) | Bedstraw plant response rating (bedstraw; [13])

CC(C)N(C(=O)n1oc(=O)n(Cc2cccs2)c1=O)c1ccc(F)cc1 [Compound 80]
4: Plant response rating, Blackgrass (blackgrass; [4]) | B. signalgrass plant response rating (surinam grass; [12])
3: Blackgrass plant response rating (blackgrass; [1]) | S. Flatsedge plant response rating (smallflower flatsedge; [7]) | S. Flatsedge plant response rating (smallflower flatsedge; [15])
5: Blackgrass plant response rating (blackgrass; [6])
6: Blackgrass plant response rating (blackgrass; [12]) | Bedstraw plant response rating (bedstraw; [6])
0: Blackgrass plant response rating (blackgrass; [2]) | S. Flatsedge plant response rating (smallflower flatsedge; [8]) | S. Flatsedge plant response rating (smallflower flatsedge; [14]) | B. signalgrass plant response rating (surinam grass; [8]) | B. signalgrass plant response rating (surinam grass; [1]) | B. signalgrass plant response rating (surinam grass; [2]) | Plant response rating, B. signalgrass (surinam grass; [3]) | Plant response rating, B. signalgrass (surinam grass; [4]) | B. signalgrass plant response rating (surinam grass; [9]) | B. signalgrass plant response rating (surinam grass; [10]) | Bedstraw plant response rating (bedstraw; [8]) | Bedstraw plant response rating (bedstraw; [1]) | Bedstraw plant response rating (bedstraw; [2]) | Plant response rating, Bedstraw (bedstraw; [3]) | Plant response rating, Bedstraw (bedstraw; [4]) | Bedstraw plant response rating (bedstraw; [12]) | Bedstraw plant response rating (bedstraw; [9])
2: Blackgrass plant response rating (blackgrass; [8]) | Plant response rating, Blackgrass (blackgrass; [3]) | Blackgrass plant response rating (blackgrass; [9])
